Test results reported in paper PMC5218480 (PLoS ONE, 2017).

System: MV-4-11 cells
Experiment: Gene expression microarray analysis (Affymetrix PrimeView) and GSEA
Format: cell-based, human
Design: RFU PODN (11730768_x_at) / Fold change /veh PODN (11730768_x_at) / RFU LINC00158 (11744669_a_at) / Fold change /veh LINC00158 (11744669_a_at) / RFU DUSP10 (11751237_a_at) / Fold change /veh DUSP10 (11751237_a_at) / RFU ID3 (11757404_x_at) / Fold change /veh ID3 (11757404_x_at) / RFU PLEKHG5 (11737974_s_at) / Fold change /veh PLEKHG5 (11737974_s_at) / RFU LRRC4B (11730491_at) / Fold change /veh LRRC4B (11730491_at) / RFU GIMAP4 (11747438_a_at) / Fold change /veh GIMAP4 (11747438_a_at) / RFU KRT8 (11758183_x_at) / Fold change /veh KRT8 (11758183_x_at) / RFU CNN1 (11734310_a_at) / Fold change /veh CNN1 (11734310_a_at) / RFU VPS37D (11726825_at) / Fold change /veh VPS37D (11726825_at) / RFU C10orf10 (11716522_x_at) / Fold change /veh C10orf10 (11716522_x_at) / RFU KIR2DL2 /// KIR2DL4 /// KIR2DL5A /// KIR2DL5B /// KIR2DS1 /// KIR2DS2 /// KIR2DS3 /// KIR2DS4 /// KIR3DL3 /// KIR3DL3 /// KIR3DS1 (11738374_at) / Fold change /veh KIR2DL2 /// KIR2DL4 /// KIR2DL5A /// KIR2DL5B /// KIR2DS1 /// KIR2DS2 /// KIR2DS3 /// KIR2DS4 /// KIR3DL3 /// KIR3DL3 /// KIR3DS1 (11738374_at) / RFU C1QL1 (11718748_at) / Fold change /veh C1QL1 (11718748_at) / RFU TMPRSS4 (11747572_a_at) / Fold change /veh TMPRSS4 (11747572_a_at) / RFU HAMP (11756126_x_at) / Fold change /veh HAMP (11756126_x_at) / RFU RNFT2 (11725882_a_at) / Fold change /veh RNFT2 (11725882_a_at) / RFU NR4A2 (11747474_a_at) / Fold change /veh NR4A2 (11747474_a_at) / RFU ABCC12 (11746883_a_at) / Fold change /veh ABCC12 (11746883_a_at) / RFU TMEM136 (11760407_x_at) / Fold change /veh TMEM136 (11760407_x_at) / RFU CLDN22 /// WWC2 (11732394_at) / Fold change /veh CLDN22 /// WWC2 (11732394_at) / RFU HLA-DPB1 (11760878_x_at) / Fold change /veh HLA-DPB1 (11760878_x_at) / RFU SPINT1 (11716480_a_at) / Fold change /veh SPINT1 (11716480_a_at) / RFU GAP43 (11754022_s_at) / Fold change /veh GAP43 (11754022_s_at) / RFU A4GNT (11735810_at) / Fold change /veh A4GNT (11735810_at) / RFU PRB3 (11715151_x_at) / Fold change /veh PRB3 (11715151_x_at) / RFU TUBB4B (11761932_at) / Fold change /veh TUBB4B (11761932_at) / RFU CAPN14 (11732068_a_at) / Fold change /veh CAPN14 (11732068_a_at) / RFU TMCC2 (11721928_a_at) / Fold change /veh TMCC2 (11721928_a_at) / RFU IRGQ (11745062_a_at) / Fold change /veh IRGQ (11745062_a_at) / RFU FAM174B (11720279_a_at) / Fold change /veh FAM174B (11720279_a_at) / RFU TMPRSS4 (11748680_a_at) / Fold change /veh TMPRSS4 (11748680_a_at) / RFU FAM212B (11763350_a_at) / Fold change /veh FAM212B (11763350_a_at) / RFU PLEKHG5 (11743358_a_at) / Fold change /veh PLEKHG5 (11743358_a_at) / RFU ZSCAN30 (11745921_a_at) / Fold change /veh ZSCAN30 (11745921_a_at) / RFU CMKLR1 (11741424_a_at) / Fold change /veh CMKLR1 (11741424_a_at) / RFU LOC101060620 /// MAPK8IP1 (11723275_at) / Fold change /veh LOC101060620 /// MAPK8IP1 (11723275_at) / RFU SPTSSB (11747773_x_at) / Fold change /veh SPTSSB (11747773_x_at) / RFU PRSS12 (11739890_at) / Fold change /veh PRSS12 (11739890_at) / RFU BIN1 (11741810_x_at) / Fold change /veh BIN1 (11741810_x_at) / RFU WNT11 (11732464_a_at) / Fold change /veh WNT11 (11732464_a_at) / RFU C10orf10 (11716521_a_at) / Fold change /veh C10orf10 (11716521_a_at) / RFU C5orf56 (11738089_at) / Fold change /veh C5orf56 (11738089_at) / RFU CYB561 (11721691_x_at) / Fold change /veh CYB561 (11721691_x_at) / RFU ANKRD19P (11752326_a_at) / Fold change /veh ANKRD19P (11752326_a_at) / RFU OR2T12 /// OR2T33 /// OR2T8 (11738714_s_at) / Fold change /veh OR2T12 /// OR2T33 /// OR2T8 (11738714_s_at) / RFU VCAN (11748164_a_at) / Fold change /veh VCAN (11748164_a_at) / RFU JSRP1 (11732532_at) / Fold change /veh JSRP1 (11732532_at) / RFU KRTAP10-11 (11738290_x_at) / Fold change /veh KRTAP10-11 (11738290_x_at) / RFU MYO3A (11730013_a_at) / Fold change /veh MYO3A (11730013_a_at) / RFU EBF3 (11725865_a_at) / Fold change /veh EBF3 (11725865_a_at) / RFU CAMK2N1 (11719241_x_at) / Fold change /veh CAMK2N1 (11719241_x_at) / RFU C5orf56 (11738088_a_at) / Fold change /veh C5orf56 (11738088_a_at) / RFU OLFML3 (11715873_a_at) / Fold change /veh OLFML3 (11715873_a_at) / RFU LOC100653217 /// NTM (11731650_a_at) / Fold change /veh LOC100653217 /// NTM (11731650_a_at) / RFU MAPK11 (11762145_a_at) / Fold change /veh MAPK11 (11762145_a_at) / RFU FIZ1 (11724087_x_at) / Fold change /veh FIZ1 (11724087_x_at) / RFU OASL (11726364_x_at) / Fold change /veh OASL (11726364_x_at) / RFU SOX15 (11748057_x_at) / Fold change /veh SOX15 (11748057_x_at) / RFU CD79A (11719716_a_at) / Fold change /veh CD79A (11719716_a_at) / RFU HIST1H1D (11736915_at) / Fold change /veh HIST1H1D (11736915_at) / RFU CASKIN2 (11723855_a_at) / Fold change /veh CASKIN2 (11723855_a_at) / RFU LOC730098 (11760151_x_at) / Fold change /veh LOC730098 (11760151_x_at) / RFU OR4N2 (11742367_at) / Fold change /veh OR4N2 (11742367_at) / RFU PRRT2 (11749266_a_at) / Fold change /veh PRRT2 (11749266_a_at) / RFU SNX32 (11753110_a_at) / Fold change /veh SNX32 (11753110_a_at) / RFU CDHR5 (11726645_a_at) / Fold change /veh CDHR5 (11726645_a_at) / RFU RCAN1 (11760418_a_at) / Fold change /veh RCAN1 (11760418_a_at) / RFU FAM167A (11723789_a_at) / Fold change /veh FAM167A (11723789_a_at) / RFU FAM26E (11764081_at) / Fold change /veh FAM26E (11764081_at) / RFU ISYNA1 (11749810_s_at) / Fold change /veh ISYNA1 (11749810_s_at) / RFU ACY1 (11761880_at) / Fold change /veh ACY1 (11761880_at) / RFU 11764098_at / Fold change /veh 11764098_at / RFU SAMD14 (11745864_x_at) / Fold change /veh SAMD14 (11745864_x_at) / RFU NPB (11741838_a_at) / Fold change /veh NPB (11741838_a_at) / RFU TMPRSS6 (11731388_a_at) / Fold change /veh TMPRSS6 (11731388_a_at) / RFU KRTAP10-2 (11738614_at) / Fold change /veh KRTAP10-2 (11738614_at) / RFU ARHGAP8 /// PRR5-ARHGAP8 (11727945_x_at) / Fold change /veh ARHGAP8 /// PRR5-ARHGAP8 (11727945_x_at) / RFU KRTAP5-7 /// NADSYN1 (11734609_at) / Fold change /veh KRTAP5-7 /// NADSYN1 (11734609_at) / RFU RASL12 (11751679_a_at) / Fold change /veh RASL12 (11751679_a_at) / RFU CDKN2B (11736163_a_at) / Fold change /veh CDKN2B (11736163_a_at) / RFU PRF1 (11729649_at) / Fold change /veh PRF1 (11729649_at) / RFU, ZNF638 /// ZNF638-IT1 / Fold change vs veh, ZNF638 /// ZNF638-IT1 / RFU, PANK3 / Fold change vs veh, PANK3 / RFU, SH3YL1 / Fold change vs veh, SH3YL1 / RFU, ZEB2 / Fold change vs veh, ZEB2 / RFU, NRIP1 / Fold change vs veh, NRIP1 / RFU, PTTG1IP / Fold change vs veh, PTTG1IP / RFU, CAPN2 / Fold change vs veh, CAPN2 / RFU, MED14 / Fold change vs veh, MED14 / RFU, SNORA58 / Fold change vs veh, SNORA58 / RFU, C1orf63 / Fold change vs veh, C1orf63 / RFU, LRRFIP1 / Fold change vs veh, LRRFIP1 / RFU, NDUFAF7 / Fold change vs veh, NDUFAF7 / RFU, SLC12A2 / Fold change vs veh, SLC12A2 / RFU, IBTK / Fold change vs veh, IBTK / RFU, ESF1 / Fold change vs veh, ESF1 / Fold change vs veh, TMEM50B / RFU, TAOK1 / Fold change vs veh, TAOK1 / RFU, ACBD3 / Fold change vs veh, ACBD3 / RFU, TMA16 / Fold change vs veh, TMA16 / RFU, RWDD3 / Fold change vs veh, RWDD3 / RFU, BCAT1 / Fold change vs veh, BCAT1 / RFU, EDEM3 / Fold change vs veh, EDEM3 / RFU, TMEM33 / Fold change vs veh, TMEM33 / RFU, WDR75 / Fold change vs veh, WDR75 / RFU, AHCTF1 / Fold change vs veh, AHCTF1 / RFU, TFRC / Fold change vs veh, TFRC / RFU, ZDHHC17 / Fold change vs veh, ZDHHC17 / RFU, NOM1 / Fold change vs veh, NOM1 / RFU, ARL8B / Fold change vs veh, ARL8B / RFU, ZBTB11 / Fold change vs veh, ZBTB11 / RFU, TAMM41 / Fold change vs veh, TAMM41 / RFU, KIAA1704 /// LOC100996395 / Fold change vs veh, KIAA1704 /// LOC100996395 / RFU, ING1 / Fold change vs veh, ING1 / RFU, TRMT61B / Fold change vs veh, TRMT61B / RFU, FUBP3 / Fold change vs veh, FUBP3 / RFU, TP53 / Fold change vs veh, TP53 / RFU, TNKS2 / Fold change vs veh, TNKS2 / RFU, ZFP14 / Fold change vs veh, ZFP14 / RFU, ACTR2 / Fold change vs veh, ACTR2 / RFU, PPP3R1 / Fold change vs veh, PPP3R1 / RFU, PIK3R1 / Fold change vs veh, PIK3R1 / RFU, HNRNPA1 / Fold change vs veh, HNRNPA1 / RFU, RNF170 / Fold change vs veh, RNF170 / RFU, ZNF28 / Fold change vs veh, ZNF28 / RFU, RNGTT / Fold change vs veh, RNGTT / RFU, OGT / Fold change vs veh, OGT / RFU, BRD1 / Fold change vs veh, BRD1 / RFU, MARS / Fold change vs veh, MARS / RFU, ZNF655 / Fold change vs veh, ZNF655 / RFU, FAHD1 / Fold change vs veh, FAHD1 / RFU, BDP1 / Fold change vs veh, BDP1 / RFU, LRRCC1 / Fold change vs veh, LRRCC1 / RFU, ARID1A / Fold change vs veh, ARID1A / RFU, ZNF146 / Fold change vs veh, ZNF146 / RFU, ZNF330 / Fold change vs veh, ZNF330 / RFU, GPN3 / Fold change vs veh, GPN3 / RFU, C9orf123 / Fold change vs veh, C9orf123 / RFU, N4BP2L2 / Fold change vs veh, N4BP2L2 / RFU, ARFIP1 / Fold change vs veh, ARFIP1 / RFU, FAM179B / Fold change vs veh, FAM179B / RFU, BCL10 / Fold change vs veh, BCL10 / RFU, UHRF1BP1L / Fold change vs veh, UHRF1BP1L / RFU, BET1 / Fold change vs veh, BET1 / RFU, CNOT2 / Fold change vs veh, CNOT2 / RFU, ZNF268 / Fold change vs veh, ZNF268 / Fold change vs veh, ZNF507 / RFU, DGCR2 / Fold change vs veh, DGCR2 / RFU, WDSUB1 / Fold change vs veh, WDSUB1 / Fold change vs veh, HSP90B1 /// MIR3652 / RFU, ADSS / Fold change vs veh, ADSS / RFU, GK / Fold change vs veh, GK / RFU, ZNF148 / Fold change vs veh, ZNF148 / RFU, TAF9 / Fold change vs veh, TAF9 / RFU, SLC1A5 / Fold change vs veh, SLC1A5 / RFU, SLMO2 / Fold change vs veh, SLMO2 / RFU, ABCC4 / Fold change vs veh, ABCC4 / RFU, LOC101060439 /// RAP1B / Fold change vs veh, LOC101060439 /// RAP1B / RFU, RFX7 / Fold change vs veh, RFX7 / RFU, GTPBP10 / Fold change vs veh, GTPBP10 / RFU, CNEP1R1 / Fold change vs veh, CNEP1R1 / RFU, BIVM-ERCC5 /// ERCC5 / Fold change vs veh, BIVM-ERCC5 /// ERCC5 / RFU, ILF3 / Fold change vs veh, ILF3 / RFU 11762660_at / Fold change /veh 11762660_at / RFU VCAN (11757783_s_at) / Fold change /veh VCAN (11757783_s_at) / RFU DDX43 (11728927_at) / Fold change /veh DDX43 (11728927_at) / RFU KRT8 (11758188_x_at) / Fold change /veh KRT8 (11758188_x_at) / RFU NKD1 (11759106_at) / Fold change /veh NKD1 (11759106_at) / RFU SRD5A1 (11742802_a_at) / Fold change /veh SRD5A1 (11742802_a_at) / RFU TPSAB1 /// TPSB2 (11721975_s_at) / Fold change /veh TPSAB1 /// TPSB2 (11721975_s_at) / RFU GSTM3 (11746129_a_at) / Fold change /veh GSTM3 (11746129_a_at) / RFU IL23R (11737362_x_at) / Fold change /veh IL23R (11737362_x_at) / RFU TMEM51 (11727254_a_at) / Fold change /veh TMEM51 (11727254_a_at) / RFU PIWIL2 (11732686_x_at) / Fold change /veh PIWIL2 (11732686_x_at) / RFU ORM1 (11744905_x_at) / Fold change /veh ORM1 (11744905_x_at) / RFU CCDC152 (11743942_at) / Fold change /veh CCDC152 (11743942_at) / RFU ECM1 (11717891_a_at) / Fold change /veh ECM1 (11717891_a_at) / RFU IL23R (11748794_a_at) / Fold change /veh IL23R (11748794_a_at) / RFU TNFAIP8L3 (11732012_x_at) / Fold change /veh TNFAIP8L3 (11732012_x_at) / RFU MBOAT4 (11741988_at) / Fold change /veh MBOAT4 (11741988_at) / RFU 11764193_at / Fold change /veh 11764193_at / RFU TMEM53 (11763286_at) / Fold change /veh TMEM53 (11763286_at) / RFU MAGEB2 (11727129_at) / Fold change /veh MAGEB2 (11727129_at) / RFU TMEM200A (11744735_a_at) / Fold change /veh TMEM200A (11744735_a_at) / RFU CCDC152 (11751479_a_at) / Fold change /veh CCDC152 (11751479_a_at) / RFU FAM211A (11726209_a_at) / Fold change /veh FAM211A (11726209_a_at) / RFU RGS16 (11746705_a_at) / Fold change /veh RGS16 (11746705_a_at) / RFU VCAN (11755009_s_at) / Fold change /veh VCAN (11755009_s_at) / RFU RHOB (11743442_s_at) / Fold change /veh RHOB (11743442_s_at) / RFU RGS16 (11720943_a_at) / Fold change /veh RGS16 (11720943_a_at) / RFU RGS16 (11720944_at) / Fold change /veh RGS16 (11720944_at) / RFU, VPS4B / Fold change vs veh, VPS4B / RFU, CREB1 / Fold change vs veh, CREB1 / RFU, DNAJC13 / Fold change vs veh, DNAJC13 / RFU, GNAQ / Fold change vs veh, GNAQ / RFU, CDK5R1 / Fold change vs veh, CDK5R1 / RFU, ZRANB3 / Fold change vs veh, ZRANB3 / RFU, CUL4A / Fold change vs veh, CUL4A / RFU, CCNY / Fold change vs veh, CCNY / RFU, UFL1 / Fold change vs veh, UFL1 / RFU, COG3 / Fold change vs veh, COG3 / RFU, DIAPH2 / Fold change vs veh, DIAPH2 / RFU, SKA2 / Fold change vs veh, SKA2 / RFU, AFF3 / Fold change vs veh, AFF3 / RFU, LMF1 / Fold change vs veh, LMF1 / RFU, IPO11 / Fold change vs veh, IPO11 / RFU, DFFB / Fold change vs veh, DFFB / RFU, FOXP1 / Fold change vs veh, FOXP1 / RFU, CARD8 / Fold change vs veh, CARD8 / RFU, STRN3 / Fold change vs veh, STRN3 / RFU, ADK / Fold change vs veh, ADK / RFU, RASSF2 / Fold change vs veh, RASSF2 / RFU, WIPF1 / Fold change vs veh, WIPF1 / RFU, LARP1B / Fold change vs veh, LARP1B / RFU, RASA1 / Fold change vs veh, RASA1 / RFU, RB1 / Fold change vs veh, RB1 / RFU, PPFIA1 / Fold change vs veh, PPFIA1 / RFU, MAT2A / Fold change vs veh, MAT2A / RFU, CCT5 / Fold change vs veh, CCT5 / RFU, WDR92 / Fold change vs veh, WDR92 / RFU, CUX1 / Fold change vs veh, CUX1 / RFU, TTC7A / Fold change vs veh, TTC7A / RFU, TMEM135 / Fold change vs veh, TMEM135 / RFU, DEPTOR / Fold change vs veh, DEPTOR / RFU, CPM / Fold change vs veh, CPM / RFU, DNAJB6 / Fold change vs veh, DNAJB6 / RFU, CACNA2D3 / Fold change vs veh, CACNA2D3 / RFU, DTX4 / Fold change vs veh, DTX4 / RFU, TFCP2 / Fold change vs veh, TFCP2 / RFU, GMCL1 /// GMCL1P1 / Fold change vs veh, GMCL1 /// GMCL1P1 / RFU, AEBP2 / Fold change vs veh, AEBP2 / RFU, SNHG1 /// SNORD22 /// SNORD25 /// SNORD26 /// SNORD27 /// SNORD28 /// SNORD29 /// SNORD31 / Fold change vs veh, SNHG1 /// SNORD22 /// SNORD25 /// SNORD26 /// SNORD27 /// SNORD28 /// SNORD29 /// SNORD31 / Fold change (Aza/veh), C12orf56 (ProbeSet 11735607_a_at) / Fold change (ACY-1035/veh), C12orf56 (ProbeSet 11735607_a_at) / Fold change (Aza/veh), FGFR1OP (ProbeSet 11751329_s_at) / Fold change (ACY-1035/veh), FGFR1OP (ProbeSet 11751329_s_at) / Fold change (Aza/veh), VPS36 (ProbeSet 11739960_a_at) / Fold change (ACY-1035/veh), VPS36 (ProbeSet 11739960_a_at) / RFU SYPL1 (11715823_x_at) / Fold change /veh SYPL1 (11715823_x_at) / RFU IGFBP7 (11715501_s_at) / Fold change /veh IGFBP7 (11715501_s_at) / RFU REEP3 (11722064_at) / Fold change /veh REEP3 (11722064_at) / RFU IGLL1 (11728026_x_at) / Fold change /veh IGLL1 (11728026_x_at): dose or concentration left out as unconfirmed
Conditions: MV-4-11 cells, 48 hours

Nc1ncn([C@@H]2O[C@H](CO)[C@@H](O)[C@H]2O)c(=O)n1 [azacitidine]
Fold change /veh IGLL1 (11728026_x_at): 0.66
